Data as given in patent publication US20230134869A1, “CRYSTAL FORM OF FREE ALKALI OF NITROGEN-CONTAINING AROMATIC DERIVATIVES” (Shanghai Hansoh Biomedical Co., Ltd., priority 2020, published 2023).
Values after ≈ are worked out from the molar mass of the structure shown. Blank lines part the entries; values can stand above or below the compound they belong to.

How the values were obtained:
[1] = Solubility experiment in different media (crystal form B of the Example 53 compound); type: physicochemical; settings: thermodynamic from solid, 37° C.
Description: The solubility of crystal form B of (S)-1′-(6-amino-5-((2-amino-3-chloropyridin-4-yl)thio)-3-fluoropyrazin-2-yl)-1,3-dihydrospiro[indene-2,4′-piperidin]-1-amine in media such as water, Simulated Gastric Fluid (SGF), Fasted State Simulated Intestinal Fluid (FaSSIF) and Fed State Simulated Intestinal Fluid (FeSSIF) was compared, so as to provide a basis for evaluating the druggability.
About 2 mg of crystal form B of (S)-1′-(6-amino-5-((2-amino-3-chloropyridin-4-yl)thio)-3-fluoropyrazin-2-yl)-1,3-dihydrospiro[indene-2,4′-piperidin]-1-amine was suspended in different media for 24 hours, respectively.

[2] = Solid stability experiment: high temperature, high humidity (crystal form A of the Example 35 compound); type: physicochemical; settings: 60° C.; room temperature/92.5% RH; 50° C. and 75% RH; 5, 10, 20 and 30 days
Description: (§1) The content was determined by HPLC using the external standard method. The related substance change was calculated by chromatographic peak area normalization method.

[3] = Hygroscopicity experiment (crystal form A of the Example 35 compound); type: physicochemical
[4] = Solubility experiment in different media (crystal form A of the Example 35 compound); type: physicochemical; settings: 37° C., 2 hours, buffers pH 1 to 8, water, FaSGF, FaSSIF, FeSSIF
[5] = Pharmacokinetics study in rats of crystal form A of the Example 35 compound, single oral administration; type: in vivo; settings: SD rats, intragastric, 10 mg/kg
[6] = Crystal transformation investigation: pressure (tabletting) and grinding; type: physicochemical; settings: compressed into tablets; ground 15 minutes
Description: The tablets were mashed to powder and characterized by XRPD.

[7] = Determination of stable crystal form by comparing DSC spectrums (Example 35 compound); type: physicochemical
Description: The objective is to find stable crystal forms of the compound (S)-8-(6-amino-5-((2-amino-3-chloropyridin-4-yl)thio)pyrazin-2-yl)-2-cyclopropyl-8-azaspiro[4.5]dec-2-en-1-amine by polymorphic screening.
Three crystal forms of (S)-8-(6-amino-5-((2-amino-3-chloropyridin-4-yl)thio)pyrazin-2-yl)-2-cyclopropyl-8-azaspiro[4.5]dec-2-en-1-amine, i.e., crystal forms A, B and C, were obtained by pulping, changing crystallization solvent and crystallization method.

[8] = Tolerance assay in mice (body weight, abnormal responses); type: in vivo, Balb/c mice; settings: oral 10 mg/kg QD
Description: (§2) Balb/c mice were used as test animals.
5 g of hydroxyethyl cellulose (HEC, CMC-Na, viscosity: 800-1200 Cps) was dissolved in 1000 mL of purified water, and 10 g of Tween 80 was added. The solution was mixed well to form a clear solution.
The solution was subjected to ultrasound for 10 minutes to obtain a colorless and clear solution with a concentration of 1 mg/mL.
After an overnight fast, Balb/c mice (3 male and 3 female) were administrated orally with the test compound at an administration dose of 10 mg/kg and an administration volume of 10 mL/kg.
The mice were weighed daily before and after administration, and abnormal responses were observed. The mice were fed 4 hours after administration.

[9] = Pharmacokinetics assay in rats; type: in vivo; settings: SD rats
Description: SD rats were used as test animals.
(§3) The solution was subjected to ultrasound to obtain a clear solution. […] The concentration was 0.2 mg/mL.
After an overnight fast, male SD rats (3 rats per group) were administered intravenously with the test compounds at an administration dose of 1 mg/kg and an administration volume of 5 mL/kg.
0.2 mL of blood was taken from jugular vein before administration and at 0 minute, 5 minutes, 15 minutes, 0.5 hour, 1.0 hour, 2.0 hours, 4.0 hours, 8.0 hours and 24.0 hours after administration. The blood samples were stored in EDTA-2K tubes, and centrifuged for 6 minutes at 6000 rpm, at 4° C. to separate the blood plasma. The plasma samples were stored at −80° C.

[10] = Pharmacokinetics assay in mice; type: in vivo; settings: Balb/c mice
Description: as §2, §3
After an overnight fast, male Balb/c mice were administered intravenously with the test compounds at an administration dose of 1 mg/kg and an administration volume of 5 mL/kg.
Blood was taken before administration and at 0 minute, 5 minutes, 15 minutes, 0.5 hour, 1.0 hour, 2.0 hours, 4.0 hours, 8.0 hours and 24.0 hours after administration. The blood samples were stored in EDTA-2K tubes, and centrifuged for 6 minutes at 6000 rpm, at 4° C. to separate the blood plasma. The plasma samples were stored at −80° C. The mice were fed 4 hours after administration.

[11] = Solid stability experiment under light (amorphous form, crystal forms A and B of the Example 53 compound); type: physicochemical
Description: as §1

[12] = Polymorphic screening and determination of stable crystal form (Example 53 compound), DSC comparison; type: physicochemical
Description: The objective is to find stable crystal forms of (S)-1′-(6-amino-5-((2-amino-3-chloropyridin-4-yl)thio)-3-fluoropyrazin-2-yl)-1,3-dihydrospiro[indene-2,4′-piperidin]-1-amine by polymorphic screening.
Organic solvents and water with a certain solubility was chosen to suspend (S)-1′-(6-amino-5-((2-amino-3-chloropyridin-4-yl)thio)-3-fluoropyrazin-2-yl)-1,3-dihydrospiro[indene-2,4′-piperidin]-1-amine in the solvent system, and the mixture was stirred and slurried at room temperature for one week, and then centrifuged. The supernatant was discarded, and the solid was dried under vacuum (−0.1 Mpa) at 40° C. overnight. The XRPD, DSC and TGA of the solid was determined and compared.
Five crystal forms of (S)-1′-(6-amino-5-((2-amino-3-chloropyridin-4-yl)thio)-3-fluoropyrazin-2-yl)-1,3-dihydrospiro[indene-2,4′-piperidin]-1-amine, i.e., crystal forms A, B, C, D and E, were obtained by pulping, changing crystallization solvent and crystallization method.

[13] = Hygroscopicity experiment (crystal form B of the Example 53 compound); type: physicochemical
Description: The hygroscopicity of crystal form B of the compound (S)-1′-(6-amino-5-((2-amino-3-chloropyridin-4-yl)thio)-3-fluoropyrazin-2-yl)-1,3-dihydrospiro[indene-2,4′-piperidin]-1-amine under different relative humidity conditions was investigated, so as to provide a basis for the crystal form screening and storage of the compound.
Crystal form B of (S)-1′-(6-amino-5-((2-amino-3-chloropyridin-4-yl)thio)-3-fluoropyrazin-2-yl)-1,3-dihydrospiro[indene-2,4′-piperidin]-1-amine was placed in saturated water vapor with different relative humidity to achieve dynamic equilibrium between the compound and water vapor, and the percentage of hygroscopic weight gain of the compound after the equilibrium was calculated.

[14] = Light 5000 ± 500 lux (sealed), Day 0
[15] = Light 5000 ± 500 lux (sealed), Day 5
[16] = Light 5000 ± 500 lux (sealed), Day 10

solubility thermodynamic at 24 h ([1]; simulated gastric fluid, SGF): 2050 µg/mL (≈ 4340 µM)
solubility thermodynamic at 24 h ([1]; Fa (Fasted State Simulated Intestinal Fluid, FaSSIF)): 170 µg/mL (≈ 360 µM)
solubility thermodynamic at 24 h ([1]; Fe (Fed State Simulated Intestinal Fluid, FeSSIF)): 64 µg/mL (≈ 136 µM)
solubility thermodynamic at 24 h ([1]; water): 1 µg/mL (≈ 2.12 µM)
SMILES: Nc1nc(N2CCC3(CC2)Cc2ccccc2[C@H]3N)c(F)nc1Sc1ccnc(N)c1Cl [(S)-1′-(6-amino-5-((2-amino-3-chloropyridin-4-yl)thio)-3-fluoropyrazin-2-yl)-1,3-dihydrospiro[indene-2,4′-piperidin]-1-amine]

SMILES: Nc1nc(N2CCC3(CC=C(C4CC4)[C@H]3N)CC2)cnc1Sc1ccnc(N)c1Cl [(S)-8-(6-amino-5-((2-amino-3-chloropyridin-4-yl)thio)pyrazin-2-yl)-2-cyclopropyl-8-azaspiro[4.5]dec-2-en-1-amine]
Impurity increase [2]: less than 0.15%
Crystal form (XRPD) after one cycle of humidification and dehumidification ([3]; 0 to 95% relative humidity): the crystal form didn't transform
Hygroscopic weight gain ([3]; RH 80%): about 0.544%
Hygroscopicity ([3]; RH 80%): slight hygroscopicity
Solubility compared in different media [4]: better solubility under acidic conditions
Metabolic property (pharmacokinetics experiment in rats) [5]: good metabolic property
Crystal transformation after tabletting and grinding (XRPD) [6]: didn't undergo crystal transformation
Thermodynamic stability by comparing DSC spectrums of crystal forms A, B and C [7]: better thermodynamic stability

F [9]: 118%
F [10]: 71%
SMILES: Nc1nc(N2CCC3(CC2)Cc2ccccc2[C@H]3N)c(F)nc1Sc1ccnc(N)c1Cl [Example 53, (S)-1′-(6-amino-5-((2-amino-3-chloropyridin-4-yl)thio)-3-fluoropyrazin-2-yl)-1,3-dihydrospiro[indene-2,4′-piperidin]-1-amine]
Body weight (Mean), Day 1 ([8]; female Balb/c mice): 22.07 g
Body weight (Mean), Day 16 ([8]; female Balb/c mice): 25.09 g
Body weight changes ΔW/W1 (Mean), Day 16 ([8]; female Balb/c mice): 13.80%
Body weight (Mean), Day 1 ([8]; male Balb/c mice): 23.01 g
Body weight (Mean), Day 16 ([8]; male Balb/c mice): 28.30 g
Body weight changes ΔW/W1 (Mean), Day 16 ([8]; male Balb/c mice): 23.25%

10-day total impurities gain ([11]; light 5000 lx±500 lx, 10 days): 19.34%
SMILES: Nc1nc(N2CCC3(CC2)Cc2ccccc2[C@H]3N)c(F)nc1Sc1ccnc(N)c1Cl [amorphous form of (S)-1′-(6-amino-5-((2-amino-3-chloropyridi] [(S)-1′-(6-amino-5-((2-amino-3-chloropyridin-4-yl)thio)-3-fluoropyrazin-2-yl)-1,3-dihydrospiro[indene-2,4′-piperidin]-1-amine]

Content (HPLC) Day 0 [11, 14]: 98.34%
Total impurities [11, 14]: 1.66%
Content (HPLC) Day 5 [11, 15]: 97.28%
Total impurities [11, 15]: 2.72%
Total impurities gain ([11]; Light 5000 ± 500 lux (sealed), Day 5 vs Day 0): 1.06%
Content (HPLC) Day 10 [11, 16]: 96.46%
Total impurities [11, 16]: 3.54%
Total impurities gain ([11]; Light 5000 ± 500 lux (sealed), Day 10 vs Day 0): 1.88%
Crystal form (XRPD) after one cycle of humidification and dehumidification ([13]; 0 to 95% relative humidity): the crystal form didn't transform
Hygroscopic weight gain ([13]; RH 80%): about 1.639%
Hygroscopicity ([13]; RH 80%): slight hygroscopicity
SMILES: Nc1nc(N2CCC3(CC2)Cc2ccccc2[C@H]3N)c(F)nc1Sc1ccnc(N)c1Cl [crystal form B of (S)-1′-(6-amino-5-((2-amino-3-chloropyridi] [(S)-1′-(6-amino-5-((2-amino-3-chloropyridin-4-yl)thio)-3-fluoropyrazin-2-yl)-1,3-dihydrospiro[indene-2,4′-piperidin]-1-amine]
Thermodynamic stability by comparing DSC spectrums of crystal forms A, B, C, D and E [12]: best thermodynamic stability among the five crystal forms
